Reference: US20250332181A1, “ANTIBIOTIC METHODS AND COMPOSITIONS” (AI BIO DISCOVERY LLC, priority 2024, published 2025)
Entries after “also recorded” stand apart in the source; their conditions may differ.

Experiments:
Pseudomonas aeruginosa = test: Disk diffusion test on Pseudomonas aeruginosa; type: cell-based; conditions: in combination with aztreonam
From the text: (§1) Applicants undertook two rounds of studies. […] When agar plating was required, both rounds of Applicants' studies were undertaken using similar disk diffusion methods on bacteria grown on agar substrates in Petri dishes. These methods conform to those prescribed by the Clinical & Laboratory Standards Institute (https://clsi.org). […]

Klebsiella pneumoniae = test: Disk diffusion test on Klebsiella pneumoniae; type: cell-based
From the text: (§2) Applicants undertook two rounds of studies. The results of the first round are illustrated in FIGS. 1A-9B and discussed in the related text. The results of the second round of studies are illustrated in FIGS. 10-23 and discussed in the related text. When agar plating was required, both rounds of Applicants' studies were undertaken using similar disk diffusion methods on bacteria grown on agar substrates in Petri dishes. These methods conform to those prescribed by the Clinical & Laboratory Standards Institute (https://clsi.org).
(§3) Disk Diffusion tests with beta-lactam antibiotics with and without the beta-lactamase inhibitor of FIG. 1A. Closely spaced disks disclose possible synergistic or inhibitory effects between the antibiotics and the compound of FIG. 1A (labeled in FIGS. 4A-9B as Compound C). The distances between disks show the effectiveness of the possible synergy. […] Each disk contains either the compound of FIG. 1A or an antibiotic (one of FIGS. 3A-3D), or the compound of […] and an antibiotic (one of FIGS. 3A-3D). When a disk with the compound of FIG. 1A is in proximity to a disk with an antibiotic both agents diffuse into the bacterial growth medium, allowing us to observe the area where both agents are present at the same time. These disk diffusion tests were evaluated with the following:
(§4) As noted above, Applicants' studies were undertaken using similar disk diffusion methods on bacteria grown on agar substrates in Petri dishes. These methods conform to those prescribed by the Clinical & Laboratory Standards Institute (https://clsi.org).

Acinetobacter baumannii = test: Disk diffusion test on Acinetobacter baumannii; type: cell-based
From the text: as §1

[1] = tested on: complicated urinary tract infection, including acute pyelonephritis; test: Intravenous cefepime plus 5-Boronothiophene-2-carboxylic acid in patients with complicated urinary tract infection; type: in vivo, adult patients; conditions: cefepime 2.0 g + 5-Boronothiophene-2-carboxylic acid 0.5 g, intravenously over two hours every 8 hours, 7 days
Description: According to the disclosed invention, requisite amounts of both cefepime and 5-Boronothiophene-2-carboxylic acid are dissolved. Particularly, 2.0 g of cefepime are dissolved in sterile normal saline (0.9% sodium chloride) solution and 0.5 g of 5-Boronothiophene-2-carboxylic acid are dissolved in DMSO. Dissolution may be accelerated by use of an alcohol such as ethyl alcohol. Thereafter, a 2.5 g dose of a combination of cefepime (2.0 g) and 5-Boronothiophene-2-carboxylic acid (0.5 g) together with sterile normal saline (0.9% sodium chloride) as a diluent is administered to randomly assigned adult patients challenged with complicated urinary tract infection, including acute pyelonephritis, over a two-hour period with the dose being administered intravenously every 8 hours. A 1.0 g dose of a placebo is administered over 30-minute periods, every 8 hours also intravenously. The administration may be carried out over a period of 7 days.

[2] = tested on: methicillin-resistant coagulase-negative Staphylococcus sps. (MRCoNS); test: Disk diffusion test on MRCoNS; type: cell-based
From the text: as §2, §3, §4

Escherichia coli = test: Disk diffusion test on Escherichia coli; type: cell-based
From the text: as §1

[3] = tested on: MSSA (methicillin-sensitive Staphylococcus aureus); test: Disk diffusion test on Staphylococcus aureus (MSSA); type: cell-based
From the text: as §1

Citrobacter freundii = test: Disk diffusion test on Citrobacter freundii; type: cell-based
From the text: as §1

[4] = in combination with ceftriaxone
[5] = in combination with ceftazidime

## O=C(O)c1ccc(B(O)O)s1 [Compound C, 2-carboxythiophene-5-boronic acid]
Pseudomonas aeruginosa
  effectiveness of the combination with antibiotic: enhanced effectiveness
Klebsiella pneumoniae; ceftazidime 30 μg + Compound C 15 μg
  enhancement of the action of ceftazidime: very strongly enhances; also recorded: strongly enhances
Klebsiella pneumoniae; in combination with ceftazidime (second round)
  effectiveness of the combination with antibiotic: enhanced effectiveness
Klebsiella pneumoniae; [4]
  effectiveness of the combination with antibiotic: enhanced effectiveness
Klebsiella pneumoniae; in combination with meropenem (second round)
  effectiveness of the combination with antibiotic: enhanced effectiveness
Klebsiella pneumoniae; meropenem 10 μg + Compound C 15 μg
  effect on the activity of meropenem: essentially no effect
Klebsiella pneumoniae; meropenem 10 μg + Compound C 150 μg
  effect on the activity of meropenem: only weakly enhances
Klebsiella pneumoniae; single agent disk, ceftazidime 30 μg, meropenem 10 μg, Compound C 15 μg
  antibacterial activity of the agent by itself: no activity on its own
Acinetobacter baumannii; [5]
  effectiveness of the combination with antibiotic: enhanced effectiveness
Acinetobacter baumannii; in combination with meropenem
  effectiveness of the combination with antibiotic: enhanced effectiveness
[1]
  microbiologic and clinical success: both microbiologic and clinical success
[2]; cefoxitin 30 μg + Compound C 15 μg
  effect on cefoxitin activity: does not enhance cefoxitin activity
[2]; cefoxitin 30 μg + Compound C 150 μg
  effect on cefoxitin activity: inhibits cefoxitin antibiotic activity
[2]; in combination with ampicillin
  effectiveness of the combination with antibiotic: enhanced effectiveness
[2]; in combination with penicillin G (second round)
  effectiveness of the combination with antibiotic: enhanced effectiveness
[2]; penicillin G 10 μg + Compound C 15 μg
  activation of the antibiotic action of penicillin G: strongly enables; also recorded: activates the antibiotic action of penicillin G
[2]; penicillin G 10 μg + Compound C 150 μg
  activation of the antibiotic action of penicillin G: further activate penicillin G
[2]; single agent disk, penicillin G 10 μg, cefoxitin 30 μg, Compound C 15 μg
  antibacterial activity of the agent by itself: no antibacterial activity
Escherichia coli; in combination with amoxycillin
  effectiveness of the combination with antibiotic: enhanced effectiveness
Escherichia coli; [5]
  effectiveness of the combination with antibiotic: enhanced effectiveness
Escherichia coli; [4]
  effectiveness of the combination with antibiotic: enhanced effectiveness
Escherichia coli; in combination with meropenem
  effectiveness of the combination with antibiotic: enhanced effectiveness
[3]; in combination with ampicillin
  effectiveness of the combination with antibiotic: enhanced effectiveness
[3]; in combination with penicillin G
  effectiveness of the combination with antibiotic: enhanced effectiveness
Citrobacter freundii; [5]
  effectiveness of the combination with antibiotic: enhanced effectiveness
Citrobacter freundii; [4]
  effectiveness of the combination with antibiotic: enhanced effectiveness
Citrobacter freundii; in combination with meropenem
  effectiveness of the combination with antibiotic: enhanced effectiveness
